In patent publication US6750012B1, “Method of identifying a psychotropic agent using differential gene expression” (CuraGen Corporation, priority 1998, dated 2004):

Experiments:
[1] = tested on: HALO1, novel gene fragment, 86 bp; assay: GENECALLING differential gene expression, striatum of haloperidol-treated rats; type: in vivo, rat
Procedure: (§1) Accordingly, the differentially expressed genes were identified by treating Wistar rats with haloperidol (0.041 mg/kg/d for 3 days via continuous infusion Alza pump), or rats treated with vehicle only for 3 days.
(§2) Rats were then sacrificed, their brains were removed, and total RNA was recovered from the microdissected striatum. cDNA was prepared and the resulting samples were processed through 140 subsequences of GENECALLING™ differential expression analysis as described in U.S. Pat. No. 5,871,697 and in Shimkets et al., Nature Biotechnology 17:198-803 (1999).
(§3) 101 gene fragments were initially found to be differentially expressed in rat striatum in response to haloperidol. The differential expression of 50 of the gene fragments was confirmed using a unlabeled oligonucleotide competition assay as described in Shimkets et al., Nature Biotechnology 17:198-803. 32 single copy nucleic acid sequences genes and 5 repetitive copy nucleic acid sequences differentially expressed in haloperidol and vehicle treated striatum were selected for further analysis elements.

[2] = tested on: HALO10, novel gene fragment, 89% similar to human rab5c-like protein [U11293]; assay: as above; type: in vivo, rat
Procedure: as §1, §2, §3

[3] = tested on: HALO11, novel gene fragment, 88% similar to human KIAA0383 gene [AB002381]; assay: as above; type: in vivo, rat
Procedure: as §1, §2, §3

[4] = tested on: HALO13, novel gene fragment, 80% similar to human suilisol [L26247]; assay: as above; type: in vivo, rat
Procedure: as §1, §2, §3

[5] = tested on: HALO16, novel gene fragment, 70% similar to E. coli putative ATP-dependent RNA helicase RHLB [P24229]; assay: as above; type: in vivo, rat
Procedure: as §1, §2, §3

[6] = tested on: HALO17, novel gene fragment, 65% similarity to 5′ region of human NOF1 [U39400]; assay: as above; type: in vivo, rat
Procedure: as §1, §2, §3

[7] = tested on: HALO18, novel gene fragment, encoded polypeptide 80% similar to human predicted protein DJ257A7.1 [AL008729]; assay: as above; type: in vivo, rat
Procedure: as §1, §2, §3

[8] = tested on: HALO19, Ribosomal protein L18a [X14181]; assay: as above; type: in vivo, rat
Procedure: as §1, §2, §3

[9] = tested on: HALO2, novel gene fragment, 121 bp; assay: as above; type: in vivo, rat
Procedure: as §1, §2, §3

[10] = tested on: HALO20, Inositol 1.4.5-triphosphate 3-kinase [M29787]; assay: as above; type: in vivo, rat
Procedure: as §1, §2, §3

[11] = tested on: HALO21, 2′-3′ cyclic nucleotide 3′ phosphodiesterase [CNPII] [L16532]; assay: as above; type: in vivo, rat
Procedure: as §1, §2, §3

[12] = tested on: HALO22, NGFI-B [U17254]; assay: as above; type: in vivo, rat
Procedure: as §1, §2, §3

[13] = tested on: HALO23, Neurogranin [L09119]; assay: as above; type: in vivo, rat
Procedure: as §1, §2, §3

[14] = tested on: HALO24, V-1 protein; assay: as above; type: in vivo, rat
Procedure: as §1, §2, §3

[15] = tested on: HALO25, 190 kDa ankyrin isoform; assay: as above; type: in vivo, rat
Procedure: as §1, §2, §3

[16] = tested on: HALO26, Cathepsin S; assay: as above; type: in vivo, rat
Procedure: as §1, §2, §3

[17] = tested on: HALO27, D-Amino acid oxidase; assay: as above; type: in vivo, rat
Procedure: as §1, §2, §3

[18] = tested on: HALO28, Stomach nonmuscle Ca^+2 ATPase [J04023]; assay: as above; type: in vivo, rat
Procedure: as §1, §2, §3

[19] = tested on: HALO33, NGF1-A; assay: as above; type: in vivo, rat
Procedure: as §1, §2, §3

[20] = tested on: HALO34, JunB [X54686]; assay: as above; type: in vivo, rat
Procedure: as §1, §2, §3

[21] = tested on: HALO35, Synaptophysin [p38]; assay: as above; type: in vivo, rat; settings: present studies
Procedure: as §1, §2, §3

[22] = tested on: HALO6, novel gene fragment, 95% similarity to mouse quaking gene type 1 [U44940]; assay: as above; type: in vivo, rat
Procedure: as §1, §2, §3

[23] = tested on: HALO7, novel gene fragment, 86% similar to human U1 snRNP 70 kDa protein; assay: as above; type: in vivo, rat
Procedure: as §1, §2, §3

[24] = tested on: HALO8, novel gene fragment, 91% similar to mouse phosphatidylinositol 3 kinase 110 kDa subunit [U03279]; assay: as above; type: in vivo, rat
Procedure: as §1, §2, §3

[25] = tested on: HALO9, novel gene fragment, 98% similar to mouse meis2 [U57343]; assay: as above; type: in vivo, rat
Procedure: as §1, §2, §3

[26] = tested on: L1 retrotransposon ORF2 (HALO29 in Table 1, HALO32 in text); assay: as above; type: in vivo, rat
Procedure: as §1, §2, §3

[27] = tested on: L1 retrotransposon mIvi2-rn38 (HALO32 in Table 1, HALO31 in text); assay: as above; type: in vivo, rat
Procedure: as §1, §2, §3

[28] = tested on: Long interspersed repetitive DNA containing 7 ORFs (HALO31 in Table 1, HALO30 in text); assay: as above; type: in vivo, rat
Procedure: as §1, §2, §3

[29] = tested on: long interspersed repetitive DNA sequence LINE3 (HALO30 in Table 1, HALO29 in text); assay: as above; type: in vivo, rat
Procedure: as §1, §2, §3

[30] = tested on: HALO12, rat novel gene fragment, 83% homologous to mouse EGF repeat transmembrane protein; assay: as above; type: in vivo
Procedure: as §1, §2, §3

[31] = tested on: HALO14, novel gene fragment, 72% similar to rat repetitive ribosomal DNA II 3′ to 45S pre-rRNA [X02822]; assay: as above; type: in vivo
Procedure: as §1, §2, §3

[32] = tested on: HALO15, novel gene fragment, 97% similar to mouse gene fragment with 44% amino acid similarity to human sorting nexin-2; assay: as above; type: in vivo; settings: Wistar rat striatum, 0.041 mg/kg/d for 3 days continuous infusion, vs vehicle
Procedure: as §1, §2, §3

[33] = tested on: HALO3, rat novel gene fragment, 495 bp; assay: as above; type: in vivo; settings: Wistar rat striatum, 0.041 mg/kg/d for 3 days continuous infusion, vs vehicle
Procedure: as §1, §2, §3

[34] = tested on: HALO4, novel gene fragment, 649 bp; assay: as above; type: in vivo; settings: Wistar rat striatum, 0.041 mg/kg/d for 3 days continuous infusion, vs vehicle
Procedure: as §1, §2, §3

[35] = tested on: HALO5, novel gene fragment, 539 bp; assay: as above; type: in vivo; settings: Wistar rat striatum, 0.041 mg/kg/d for 3 days continuous infusion, vs vehicle
Procedure: as §1, §2, §3

[36] = tested on: rats; assay: Motor disturbances in rats treated for 28 days; type: in vivo, rat
[37] = tested on: Inisotaol monophsphates; settings: 4-6 weeks following administration, decanoate dosing; cited from earlier work
[38] = tested on: sigma receptors; settings: Seth et al, J Neurochem 70; cited from earlier work
[39] = Wistar rat striatum, 0.041 mg/kg/d for 3 days continuous infusion, vs vehicle
[40] = haloperidol-treated rats, striatum
[41] = haloperidol-treated rats, striatum, present studies

With O=C(CCCN1CCC(O)(c2ccc(Cl)cc2)CC1)c1ccc(F)cc1 [haloperidol] the “Haloperidol Effect on Transcript Level: HALO1” value [1, 39] was −2.9, the HALO1 expression decreased [1, 40] was 2.9 fold and the “Haloperidol Effect on Transcript Level: HALO10” value [2, 39] was −2.0. The HALO10 expression diminished [2, 40] was 2 fold, the “Haloperidol Effect on Transcript Level: HALO11” value [3, 39] was −2.0 and the HALO11 expression increased [3, 40] was 4 fold. For the same molecule, the “Haloperidol Effect on Transcript Level: HALO13” value [4, 39] was “+6.3”, the HALO13 expression increased [4, 40] was 6.3 fold and the “Haloperidol Effect on Transcript Level: HALO16” value [5, 39] was −8. For the same molecule, the HALO16 expression diminished [5, 40] was 8 fold, the “Haloperidol Effect on Transcript Level: HALO17” value [6, 39] was −10 and the HALO17 expression diminished [6, 40] was 10 fold. The “Haloperidol Effect on Transcript Level: HALO18” value [7, 39] was −2.5, the HALO18 expression diminished [7, 40] was 2.5 fold and the “Haloperidol Effect on Transcript Level: HALO19 Ribosomal protein L18a” value [8, 39] was “+1.8”. For the same molecule, the “HALO19 (L18a) transcription increased” value [8, 40] was 1.8 fold, the “Haloperidol Effect on Transcript Level: HALO2” value [9, 39] was −2 and the HALO2 expression decreased [9, 40] was 2 fold. The “Haloperidol Effect on Transcript Level: HALO20 Inositol 1.4.5-triphosphate 3-kinase” value [10, 39] was “+2”, the HALO20 expression increased [10, 40] was 2 fold and the “Haloperidol Effect on Transcript Level: HALO21 CNPII” value [11, 39] was −3. The “HALO21 (CNPII) expression decreases” value [11, 40] was 3.0 folf, the “Haloperidol Effect on Transcript Level: HALO22 NGFI-B” value [12, 39] was “+2.4” and the “NGFI-B expression increased (under heading HALO22)” value [12, 40] was 2.4 fold. For the same molecule, the “Haloperidol Effect on Transcript Level: HALO23 Neurogranin” value [13, 39] was “+1.1”, the “HALO23 (neurogranin) expression increased” value [13, 40] was 1.1 fold and the “Haloperidol Effect on Transcript Level: HALO24 V-1 protein” value [14, 39] was −2.0. The “HALO24 (V-1 protein) expression decreased” value [14, 40] was 2.0 fold, the “Haloperidol Effect on Transcript Level: HALO25 190 kDa ankyrin isoform” value [15, 39] was −2.0 and the “HALO25 (190 kDA ankyrin isoform) expression decreased” value [15, 40] was 2.0 fold. For the same molecule, the “Haloperidol Effect on Transcript Level: HALO26 Cathepsin S” value [16, 39] was −1.7, the “HALO26 (cathepsin S) expression decreased” value [16, 40] was 1.7 fold and the “Haloperidol Effect on Transcript Level: HALO27 D-Amino acid oxidase” value [17, 39] was −2.0. For the same molecule, the “HALO27 (D-amino acid oxidase) expression decreased” value [17, 40] was 2.0 fold, the “Haloperidol Effect on Transcript Level: HALO28 Stomach nonmuscle Ca^+2 ATPase” value [18, 39] was “+2” and the “HALO28 (stomach nonmuscle Ca+2 ATPase) expression increased” value [18, 40] was 2 fold. For the same molecule, the “Haloperidol Effect on Transcript Level: HALO33 NGF1-A” value [19, 39] was −3, the “HALO33 (NGF1-A) expression increased” value [19, 41] was 1.6 fold and the “Haloperidol Effect on Transcript Level: HALO34 JunB” value [20, 39] was “+4”. For the same molecule, the “HALO34 (JunB) expression increased” value [20, 41] was 4 fold, the “HALO35 (synaptophysin) expression varied” value [21] was about 1 fold and the “Haloperidol Effect on Transcript Level: HALO6” value [22, 39] was −2. For the same molecule, the HALO6 expression decreased [22, 40] was 2 fold, the “Haloperidol Effect on Transcript Level: HALO7” value [23, 39] was −1.7 and the HALO7 expression diminished [23, 40] was 1.7 fold. For the same molecule, the “Haloperidol Effect on Transcript Level: HALO8” value [24, 39] was −2, the HALO8 expression diminished [24, 40] was 2 fold and the “Haloperidol Effect on Transcript Level: HALO9” value [25, 39] was “+1.6”. The HALO9 expression increased [25, 40] was 1.6 fold, the “Haloperidol Effect on Transcript Level: HALO29 L1 retrotransposon ORF2” value [26, 39] was −3.3 and the “L1 retrotransposon ORF2 expression decreases (text: HALO32)” value [26, 40] was 3.3 fold. The “Haloperidol Effect on Transcript Level: HALO32 L1 retrotransposon mIvi2-rn38” value [27, 39] was −5.5, the “L1 retrotransposon ml vi2-m38 expression decreases (text: HALO31)” value [27, 40] was 5.5 fold and the “Haloperidol Effect on Transcript Level: HALO31 Long interspersed repetitive DNA containing 7 ORFs” value [28, 39] was −3.5. For the same molecule, the “long interspersed repetitive DNA containing 7 ORF expression decreases (text: HALO30)” value [28, 40] was 3.5 fold, the “Haloperidol Effect on Transcript Level: HALO30 LINE3” value [29, 39] was −5 and the “LINE3 expression decreases (text: HALO29)” value [29, 40] was 5 fold. The “Haloperidol Effect on Transcript Level: HALO12” value [30, 39] was “+3”, the HALO12 expression increased [30, 40] was 3 fold and the “Haloperidol Effect on Transcript Level: HALO14” value [31, 39] was −5. The HALO14 expression diminished [31, 40] was 5 fold, the “Haloperidol Effect on Transcript Level: HALO15” value [32] was “+1.0” and the “Haloperidol Effect on Transcript Level: HALO3” value [33] was −2.5. The “Haloperidol Effect on Transcript Level: HALO4” value [34] was −3, the “Haloperidol Effect on Transcript Level: HALO5” value [35] was −1.5 and the motor disturbances [36] was “motor disturbances that parallel human pathology”. For the same molecule, the Inositol monophosphates level [37] was “decrease” and the “binding activity with sigma receptors” value [38] was “binding activity”.
